Data taken from US10123995B2, “Factor XIa inhibitors” (MERCK SHARP & DOHME CORP., priority 2015, dated 2018).

Assays:
[1] = target: purified Human plasma kallikrein (Homo sapiens (Human), UniProt P03952); assay: Kallikrein Assay; assay type: biochemical; settings: table titled Kalikrein inhibition (column head prints hFXIa), substrate Acetyl-K-P-R-AFC, pH 7.4
Protocol: (§1) The effectiveness of a compound of the present invention as an inhibitor of Kallikrein can be determined using a relevant purified serine protease, and an appropriate synthetic substrate. The rate of hydrolysis of the chromogenic or fluorogenic substrate by the relevant serine protease was measured both in the absence and presence of compounds of the present invention. Assays were conducted at room temperature or at 37° C. […] A decrease in the rate of fluorescence change in the presence of inhibitor is indicative of enzyme inhibition. Such methods are known to one skilled in the art. The results of this assay are expressed as the inhibitory constant, Ki.
Kallikrein determinations were made in 50 mM HEPES buffer at pH 7.4 containing 150 mM NaCl, 5 mM CaCl2, and 0.1% PEG 8000 (polyethylene glycol; Fisher Scientific). Determinations were made using purified Human plasma kallikrein at a final concentration of 0.5 nM (Enzyme Research Laboratories) and the synthetic substrate, Acetyl-K-P-R-AFC (Sigma # C6608) at a concentration of […].
Activity assays were performed by diluting a stock solution of substrate at least tenfold to a final concentration ≤0.2 Km into a solution containing enzyme or enzyme equilibrated with inhibitor. Times required to achieve equilibration between enzyme and inhibitor were determined in control experiments. The reactions were performed under linear progress curve conditions and fluorescence increase measured at 405 Ex/510 Em nm. Values were converted to percent inhibition of the control reaction (after subtracting 100% Inhibition value). IC50 was determined by inflection point from a four parameter logistic curve fit. Ki was calculated using the Cheng Prusoff equation, Ki=IC50/(1+([S]/Km)).

[2] = target: purified human Factor XIa (Homo sapiens (Human), UniProt P03951); assay: Factor XIa Assay; assay type: biochemical; settings: Factor XIa inhibition; substrate Z-Gly-Pro-Arg-AFC, pH 7.4; read-out: hFXIa IC50
Protocol: as §1, with “Coagulation Factor XIa” for “Kallikrein”, “The results of this assay are expressed as the inhibitory constant, Ki.” left out
Factor XIa determinations were made in 50 mM HEPES buffer at pH 7.4 containing 150 mM NaCl, 5 mM CaCl2, and 0.1% PEG 8000 (polyethylene glycol; JT Baker or Fisher Scientific). Determinations were made using purified human Factor XIa at a final concentration of 40 pM (Sekisui Diagnostics) and the synthetic substrate, Z-Gly-Pro-Arg-AFC, TFA salt (Sigma #C0980) at a concentration of 100 μM.
Activity assays were performed by diluting a stock solution of substrate at least tenfold to a final concentration ≤0.1 Km into a solution containing enzyme or enzyme equilibrated with inhibitor. Times required to achieve equilibration between enzyme and inhibitor were determined in control experiments. Initial velocities of product formation in the absence (Vo) or presence of inhibitor (Vi) were measured. Assuming competitive inhibition, and that unity is negligible compared Km/[S], [I]/e, and [I]/e (where [S], [I], and e respectively represent the total concentrations, of substrate, inhibitor and enzyme), the equilibrium constant (Ki) for dissociation of the inhibitor from the enzyme can be obtained from the dependence of Vo/Vi on [I] shown in the following equation. Vo/Vi=1+[I]/Ki

purified Human plasma kallikrein, sequence (P03952 391-638): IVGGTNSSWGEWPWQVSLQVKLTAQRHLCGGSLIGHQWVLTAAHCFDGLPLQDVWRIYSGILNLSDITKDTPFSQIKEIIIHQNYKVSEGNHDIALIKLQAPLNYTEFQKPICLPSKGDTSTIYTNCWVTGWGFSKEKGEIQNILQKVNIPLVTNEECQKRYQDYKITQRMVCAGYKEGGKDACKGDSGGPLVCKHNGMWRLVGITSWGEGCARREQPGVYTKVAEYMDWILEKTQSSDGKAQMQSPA
purified Human plasma kallikrein, sequence (P03952 20-390 partner): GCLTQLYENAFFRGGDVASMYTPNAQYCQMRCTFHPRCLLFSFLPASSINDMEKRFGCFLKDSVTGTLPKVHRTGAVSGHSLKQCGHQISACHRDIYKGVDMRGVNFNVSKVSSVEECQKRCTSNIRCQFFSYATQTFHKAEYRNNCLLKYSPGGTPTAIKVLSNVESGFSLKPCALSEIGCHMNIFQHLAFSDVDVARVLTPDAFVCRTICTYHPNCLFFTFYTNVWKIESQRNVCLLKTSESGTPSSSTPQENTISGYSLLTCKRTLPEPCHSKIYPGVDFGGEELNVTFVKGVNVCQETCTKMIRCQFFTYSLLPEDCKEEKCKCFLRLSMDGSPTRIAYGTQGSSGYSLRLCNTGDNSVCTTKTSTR
purified human Factor XIa, sequence (P03951 388-625): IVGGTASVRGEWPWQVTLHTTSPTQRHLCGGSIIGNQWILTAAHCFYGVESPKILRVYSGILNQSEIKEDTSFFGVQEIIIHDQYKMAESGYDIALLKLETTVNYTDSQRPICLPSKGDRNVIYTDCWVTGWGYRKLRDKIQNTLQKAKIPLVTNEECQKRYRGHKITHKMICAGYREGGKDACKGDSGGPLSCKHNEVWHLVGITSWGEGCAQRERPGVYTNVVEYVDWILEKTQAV
purified human Factor XIa, sequence (P03951 19-387 partner): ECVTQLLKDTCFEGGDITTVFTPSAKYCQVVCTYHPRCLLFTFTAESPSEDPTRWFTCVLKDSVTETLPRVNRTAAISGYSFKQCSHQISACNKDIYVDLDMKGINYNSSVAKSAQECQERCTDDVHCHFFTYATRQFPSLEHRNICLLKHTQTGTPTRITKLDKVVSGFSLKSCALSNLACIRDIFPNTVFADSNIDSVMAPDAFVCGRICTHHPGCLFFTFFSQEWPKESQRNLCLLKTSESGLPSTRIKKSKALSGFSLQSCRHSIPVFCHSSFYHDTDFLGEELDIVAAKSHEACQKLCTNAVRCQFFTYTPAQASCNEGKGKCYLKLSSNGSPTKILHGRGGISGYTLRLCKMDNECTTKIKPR

## O=C(O)c1ccc(NC(=O)C2(O)CC(O)c3cc(-c4cc(Cl)ccc4-n4cnnn4)c[n+]([O-])c32)cc1 (single isomer, unassigned) [Example 9, 4-[({3-[5-Chloro-2-(1H-tetrazol-1-yl)phenyl]-5,7-dihydroxy-1-oxido-6,7-dihydro-5H-cyclopenta[b]pyridin-7-yl}carbonyl)amino]benzoic acid]
[1]
  IC50: 460 nM
[2]
  IC50: 2.9 nM
